Measurements taken from patent publication US9695155B2, “Herbicidal substituted pyrimidinyloxy benzene compounds” (E. I. DU PONT DE NEMOURS AND COMPANY, priority 2013, dated 2017).

Columns and labels:
corn [1] = experiment: Test A postemergence; format: in vivo, Zea mays
Summary of the method: (§1)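 Visual 0–100 rating (100 = complete control) taken about 10 d post-treatment relative to untreated checks. Preemergence: directed soil spray on sown loam/sand pots. Postemergence: seedlings 2–10 cm, 1–2 leaf. Non-phytotoxic solvent formulation with surfactant.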

wheat [2] = experiment: Test A postemergence; format: in vivo, Triticum aestivum
Summary of the method: as §1

giant foxtail [3] = experiment: Test A postemergence; format: in vivo, Setaria faberii
Summary of the method: as §1

barnyardgrass [4] = experiment: Test B flooded paddy test; format: in vivo, Echinochloa crus-galli; details: Flood, 250 g ai/ha; 0 to 100 scale where 0 is no effect and 100 is complete control
Summary of the method: (§2)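 Seedlings are raised to two leaves, flooded to a depth of 3 cm and dosed by adding the compound to the floodwater. Water level is kept constant, and plants are scored visually versus controls 13–15 days later (0 = no effect, 100 = complete control).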

corn [5] = experiment: Test A preemergence; format: in vivo, Zea mays
Summary of the method: as §1

morningglory [6] = experiment: Test A postemergence; format: in vivo, Ipomoea spp.
Summary of the method: as §1

wheat [7] = experiment: Test A preemergence; format: in vivo, Triticum aestivum
Summary of the method: as §1

large (Lg) crabgrass [8] = experiment: Test A postemergence; format: in vivo, Digitaria sanguinalis
Summary of the method: as §1

Heteranthera limosa = experiment: Test B flooded paddy test; format: in vivo; details: Flood, 250 g ai/ha; 0 to 100 scale where 0 is no effect and 100 is complete control
Summary of the method: as §2

giant foxtail [9] = experiment: Test A preemergence; format: in vivo, Setaria faberii
Summary of the method: as §1

barnyardgrass [10] = experiment: Test A preemergence; format: in vivo, Echinochloa crus-galli
Summary of the method: as §1

sedge, umbrella = experiment: Test B flooded paddy test; format: in vivo, Cyperus difformis; details: Flood, 250 g ai/ha; 0 to 100 scale where 0 is no effect and 100 is complete control
Summary of the method: as §2

barnyardgrass [11] = experiment: Test A postemergence; format: in vivo, Echinochloa crus-galli
Summary of the method: as §1

velvetleaf [12] = experiment: Test A preemergence; format: in vivo, Abutilon theophrasti
Summary of the method: as §1

morningglory [13] = experiment: Test A preemergence; format: in vivo, Ipomoea spp.
Summary of the method: as §1

large (Lg) crabgrass [14] = experiment: Test A preemergence; format: in vivo, Digitaria sanguinalis
Summary of the method: as §1

pigweed [15] = experiment: Test A postemergence; format: in vivo, Amaranthus retroflexus
Summary of the method: as §1

pigweed [16] = experiment: Test A preemergence; format: in vivo, Amaranthus retroflexus
Summary of the method: as §1

velvetleaf [17] = experiment: Test A postemergence; format: in vivo, Abutilon theophrasti
Summary of the method: as §1

rice = experiment: Test B flooded paddy test; format: in vivo, Oryza sativa; details: Flood, 250 g ai/ha; 0 to 100 scale where 0 is no effect and 100 is complete control
Summary of the method: as §2

[18] = 125 g ai/ha, 0 to 100 scale where 0 is no effect and 100 is complete control
[19] = 500 g ai/ha, 0 to 100 scale where 0 is no effect and 100 is complete control
[20] = 500 g ai/ha, 0 to 100 scale, 0 no effect, 100 complete control
[21] = 500 g ai/ha, 0 to 100 scale, 0 no effect, 100 complete control, approx. 10 days

N#Cc1cc(F)cc(Oc2ncc(Cl)cn2)c1-n1cc(Br)cn1 [Compound 238]
100: Foxtail, Giant plant response rating (0 to 100 scale) (giant foxtail [9]; 125 g ai/ha) | Foxtail, Giant plant response rating (giant foxtail [9]; [19]) | Barnyardgrass plant response rating (barnyardgrass [10]; [19]) | Plant response rating, Barnyardgrass (barnyardgrass [11]; [19]) | Morningglory plant response rating (morningglory [13]; [19]) | Crabgrass, Large plant response rating (0 to 100 scale) (large (Lg) crabgrass [14]; 125 g ai/ha) | Crabgrass, Large plant response rating (large (Lg) crabgrass [14]; [19]) | Pigweed plant response rating (pigweed [15]; [18]) | Plant response rating, Pigweed (pigweed [15]; [19]) | Pigweed plant response rating (0 to 100 scale) (pigweed [16]; 125 g ai/ha) | Pigweed plant response rating (pigweed [16]; [19]) | Plant response rating, Velvetleaf (velvetleaf [17]; [19])
0: Corn plant response rating (corn [1]; [18]) | Wheat plant response rating (wheat [2]; [18]) | Plant response rating, Barnyardgrass (barnyardgrass [4]) | Corn plant response rating (0 to 100 scale) (corn [5]; 125 g ai/ha) | Wheat plant response rating (0 to 100 scale) (wheat [7]; 125 g ai/ha) | Plant response rating, Rice (rice)
40: Morningglory plant response rating (morningglory [6]; [18]) | Barnyardgrass plant response rating (barnyardgrass [11]; [18])
60: Plant response rating, Wheat (wheat [2]; [19]) | Foxtail, Giant plant response rating (giant foxtail [3]; [18]) | Plant response rating, Morningglory (morningglory [6]; [19]) | Crabgrass, Large plant response rating (large (Lg) crabgrass [8]; [18]) | Velvetleaf plant response rating (velvetleaf [17]; [18])
30: Wheat plant response rating (wheat [7]; [19])
70: Plant response rating, Ducksalad (Heteranthera limosa) | Barnyardgrass plant response rating (0 to 100 scale, 0 is no effect, 100 is complete control) (barnyardgrass [10]; 125 g ai/ha) | Velvetleaf plant response rating (0 to 100 scale) (velvetleaf [12]; 125 g ai/ha)
10: Morningglory plant response rating (0 to 100 scale) (morningglory [13]; 125 g ai/ha)
90: Plant response rating, Foxtail, Giant (giant foxtail [3]; [19]) | Corn plant response rating (corn [5]; [19]) | Plant response rating, Crabgrass, Large (large (Lg) crabgrass [8]; [19]) | Plant response rating, Sedge, Umbrella (sedge, umbrella) | Velvetleaf plant response rating (velvetleaf [12]; [19])
80: Plant response rating, Corn (corn [1]; [19])

FC(F)(F)c1cnc(Oc2ccccc2-n2ccc(C(F)(F)F)n2)nc1 [Compound 4]
0: Plant response rating, Corn (corn [1]; [18]) | Plant response rating, Corn (corn [1]; [20]) | Plant response rating, Wheat (wheat [2]; [18]) | Plant response rating, Wheat (wheat [2]; [20]) | Plant response rating, Foxtail, Giant (giant foxtail [3]; [18]) | Plant response rating, Foxtail, Giant (giant foxtail [3]; [20]) | Plant response rating, Barnyardgrass (barnyardgrass [4]) | Corn plant response rating (corn [5]; [18]) | Corn plant response rating (corn [5]; [21]) | Plant response rating, Morningglory (morningglory [6]; [18]) | Plant response rating, Morningglory (morningglory [6]; [20]) | Wheat plant response rating (wheat [7]; [18]) | Wheat plant response rating (wheat [7]; [21]) | Plant response rating, Crabgrass, Large (large (Lg) crabgrass [8]; [18]) | Plant response rating, Crabgrass, Large (large (Lg) crabgrass [8]; [20]) | Plant response rating, Ducksalad (Heteranthera limosa) | Foxtail, Giant plant response rating (giant foxtail [9]; [18]) | Foxtail, Giant plant response rating (giant foxtail [9]; [21]) | Barnyardgrass plant response rating (barnyardgrass [10]; [18]) | Barnyardgrass plant response rating (barnyardgrass [10]; [21]) | Plant response rating, Sedge, Umbrella (sedge, umbrella) | Plant response rating, Barnyardgrass (barnyardgrass [11]; [18]) | Plant response rating, Barnyardgrass (barnyardgrass [11]; [20]) | Velvetleaf plant response rating (velvetleaf [12]; [18]) | Velvetleaf plant response rating (velvetleaf [12]; [21]) | Morningglory plant response rating (morningglory [13]; [18]) | Morningglory plant response rating (morningglory [13]; [21]) | Crabgrass, Large plant response rating (large (Lg) crabgrass [14]; [18]) | Crabgrass, Large plant response rating (large (Lg) crabgrass [14]; [21]) | Plant response rating, Pigweed (pigweed [15]; [18]) | Pigweed plant response rating (pigweed [16]; [18]) | Pigweed plant response rating (pigweed [16]; [21]) | Plant response rating, Velvetleaf (velvetleaf [17]; [18]) | Plant response rating, Velvetleaf (velvetleaf [17]; [20]) | Plant response rating, Rice (rice)
20: Plant response rating, Pigweed (pigweed [15]; [20])

Clc1cnc(Oc2ccccc2-n2cc(-c3ccccn3)cn2)nc1 [Compound 190]
60: Velvetleaf plant response rating (velvetleaf [12]; [19]) | Velvetleaf plant response rating (velvetleaf [17]; [18])
50: Plant response rating, Crabgrass, Large (large (Lg) crabgrass [8]; [19]) | Velvetleaf plant response rating (0 to 100 scale) (velvetleaf [12]; 125 g ai/ha)
20: Plant response rating, Corn (corn [1]; [19]) | Morningglory plant response rating (morningglory [13]; [19]) | Crabgrass, Large plant response rating (0 to 100 scale) (large (Lg) crabgrass [14]; 125 g ai/ha)
10: Crabgrass, Large plant response rating (large (Lg) crabgrass [8]; [18]) | Foxtail, Giant plant response rating (0 to 100 scale) (giant foxtail [9]; 125 g ai/ha) | Barnyardgrass plant response rating (barnyardgrass [10]; [19]) | Plant response rating, Barnyardgrass (barnyardgrass [11]; [19])
90: Plant response rating, Morningglory (morningglory [6]; [19]) | Crabgrass, Large plant response rating (large (Lg) crabgrass [14]; [19])
0: Corn plant response rating (corn [1]; [18]) | Wheat plant response rating (wheat [2]; [18]) | Plant response rating, Wheat (wheat [2]; [19]) | Foxtail, Giant plant response rating (giant foxtail [3]; [18]) | Plant response rating, Barnyardgrass (barnyardgrass [4]) | Corn plant response rating (0 to 100 scale) (corn [5]; 125 g ai/ha) | Corn plant response rating (corn [5]; [19]) | Wheat plant response rating (0 to 100 scale) (wheat [7]; 125 g ai/ha) | Wheat plant response rating (wheat [7]; [19]) | Plant response rating, Ducksalad (Heteranthera limosa) | Barnyardgrass plant response rating (0 to 100 scale, 0 is no effect, 100 is complete control) (barnyardgrass [10]; 125 g ai/ha) | Plant response rating, Sedge, Umbrella (sedge, umbrella) | Barnyardgrass plant response rating (barnyardgrass [11]; [18]) | Morningglory plant response rating (0 to 100 scale) (morningglory [13]; 125 g ai/ha) | Plant response rating, Rice (rice)
80: Foxtail, Giant plant response rating (giant foxtail [9]; [19]) | Plant response rating, Velvetleaf (velvetleaf [17]; [19])
40: Plant response rating, Foxtail, Giant (giant foxtail [3]; [19])
100: Pigweed plant response rating (pigweed [15]; [18]) | Plant response rating, Pigweed (pigweed [15]; [19]) | Pigweed plant response rating (0 to 100 scale) (pigweed [16]; 125 g ai/ha) | Pigweed plant response rating (pigweed [16]; [19])
30: Morningglory plant response rating (morningglory [6]; [18])

Cc1cnn(-c2c(C#N)cccc2Oc2ncc(Cl)cn2)c1 [Compound 95]
90: Plant response rating, Morningglory (morningglory [6]; [19]) | Plant response rating, Crabgrass, Large (large (Lg) crabgrass [8]; [19]) | Plant response rating, Velvetleaf (velvetleaf [12]; [18]) | Plant response rating, Pigweed (pigweed [16]; [18])
50: Plant response rating, Barnyardgrass (barnyardgrass [10]; [18]) | Plant response rating, Sedge, Umbrella (sedge, umbrella) | Plant response rating, Barnyardgrass (barnyardgrass [11]; [18]) | Plant response rating, Morningglory (morningglory [13]; [18])
80: Plant response rating, Foxtail, Giant (giant foxtail [3]; [19]) | Plant response rating, Barnyardgrass (barnyardgrass [11]; [19])
100: Plant response rating, Foxtail, Giant (giant foxtail [9]; [18]) | Foxtail, Giant plant response rating (giant foxtail [9]; [21]) | Barnyardgrass plant response rating (barnyardgrass [10]; [21]) | Morningglory plant response rating (morningglory [13]; [21]) | Plant response rating, Crabgrass, Large (large (Lg) crabgrass [14]; [18]) | Crabgrass, Large plant response rating (large (Lg) crabgrass [14]; [21]) | Plant response rating, Pigweed (pigweed [15]; [18]) | Plant response rating, Pigweed (pigweed [15]; [19]) | Pigweed plant response rating (pigweed [16]; [21]) | Plant response rating, Velvetleaf (velvetleaf [17]; [19])
60: Plant response rating, Morningglory (morningglory [6]; [18])
40: Plant response rating, Wheat (wheat [2]; [19]) | Plant response rating, Foxtail, Giant (giant foxtail [3]; [18]) | Corn plant response rating (corn [5]; [21]) | Plant response rating, Crabgrass, Large (large (Lg) crabgrass [8]; [18]) | Plant response rating, Ducksalad (Heteranthera limosa)
70: Plant response rating, Corn (corn [1]; [19]) | Plant response rating, Velvetleaf (velvetleaf [17]; [18])
10: Plant response rating, Corn (corn [1]; [18])
0: Plant response rating, Wheat (wheat [2]; [18]) | Plant response rating, Barnyardgrass (barnyardgrass [4]) | Plant response rating, Corn (corn [5]; [18]) | Plant response rating, Wheat (wheat [7]; [18]) | Plant response rating, Rice (rice)
